Test results taken from PubChem BioAssay (NCI).
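Dose response: 5 concentrations. Exposure: 48 h. Format: 96-well plates. Endpoint: linear interpolation; highest concentration if not reached. TGI is the concentration that stops growth completely.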

Key:
Assay in all cases: NCI tumour cell line growth inhibition, 48 h
MDA-MB-435 = test system: MDA-MB-435
SF-268 CNS = test system: SF-268 CNS
HCC-2998 colon = test system: HCC-2998 colon
T-47D breast = test system: T-47D breast
HCT-15 colon = test system: HCT-15 colon
SK-OV-3 ovarian = test system: SK-OV-3 ovarian
SK-MEL-5 melanoma = test system: SK-MEL-5 melanoma
SNB-78 CNS = test system: SNB-78 CNS
DLD-1 colon = test system: DLD-1 colon
KM20L2 colon = test system: KM20L2 colon
M19-MEL melanoma = test system: M19-MEL melanoma
LXFL 529 NSCLC = test system: LXFL 529 NSCLC
XF 498 CNS = test system: XF 498 CNS
DMS 273 small cell lung = test system: DMS 273 small cell lung
DMS 114 small cell lung = test system: DMS 114 small cell lung

Compound | TGI (MDA-MB-435) [µM] | TGI (SF-268 CNS) [µM] | TGI (HCC-2998 colon) [µM] | TGI (T-47D breast) [µM] | TGI (HCT-15 colon) [µM] | TGI (SK-OV-3 ovarian) [µM] | TGI (SK-MEL-5 melanoma) [µM] | TGI (SNB-78 CNS) [µM] | TGI (DLD-1 colon) [µM] | TGI (KM20L2 colon) [µM] | TGI (M19-MEL melanoma) [µM] | TGI (LXFL 529 NSCLC) [µM] | TGI (XF 498 CNS) [µM] | TGI (DMS 273 small cell lung) [µM] | TGI (DMS 114 small cell lung) [µM]
CCOC(=O)C1(Cc2ccccc2)Cc2cc3c(cc2C1=O)CCC3 (stereo not drawn) | > 100 | > 100 | > 100 | > 100 | > 100 | > 100 | > 100 |  |  |  |  |  |  |  | 
COc1ccc(-n2nnc3c(C#N)c(-c4ccccc4)c(C)n3c2=O)cc1 | > 100 | > 100 | > 100 | > 100 | > 100 | > 100 | 48 |  |  |  |  |  |  |  | 
Cc1cc(=O)oc2c(CNC(C)C(=O)O)c(O)ccc12 (stereo not drawn) | > 100 | > 100 | > 100 | > 100 | > 100 | > 100 | > 100 |  |  |  |  |  |  |  | 
O=C1NCC2(CCN(Cc3ccccc3)CC2)N1 | > 100 | > 100 | > 100 | > 100 | > 100 | > 100 | > 100 |  |  |  |  |  |  |  | 
CC(=O)OCc1cccc(O)c1C(=O)CCC=C(C)C | > 100 | > 100 | > 100 | > 100 | > 100 | > 100 | > 100 |  |  |  |  |  |  |  | 
OC(c1ccsc1)c1cc2ccccc2s1 (stereo not drawn) | > 10 | > 10 | > 10 | > 10 | > 10 | > 10 | > 10 |  |  |  |  |  |  |  | 
COc1cc(CNc2nc3ccccc3nc2-c2cccs2)cc(OC)c1OC | > 100 | > 100 | > 100 | > 100 | > 100 | > 100 | 28.8 |  |  |  |  |  |  |  | 
CCOC(=O)N1CC2(C(=O)OC)C=CC1C(C(=O)OC)C2 (stereo not drawn) | > 100 | > 100 | > 100 | > 100 | > 100 | > 100 | > 100 |  |  |  |  |  |  |  | 
CCc1ccc(CCC(=O)O)nc1 | > 100 | > 100 | > 100 | > 100 | > 100 | > 100 | > 100 |  |  |  |  |  |  |  | 
Cc1c(C)c(S(=O)(=O)N(CCCCCN)OCCCN)c(C)c2c1OC(C)(C)CC2 | 15.3 | 28.5 | 6.05 | > 57.8 | 42.5 | 32 | > 50.4 |  |  |  |  |  |  |  | 
O/N=C(\C=N\O)c1ccc2c(c1)Sc1ccccc1O2 | 33.9 | 38.4 | 41.9 | 74.7 | 75.2 | 40.2 |  |  |  |  |  |  |  |  | 
OCCOCCN1CCN(c2nc(N3CCCC3)c3nc(Cl)c(NCc4ccccc4)nc3n2)CC1 | 26 | 31.9 | 15 | 30.6 | 15.3 | 31.9 | 17.9 |  |  |  |  |  |  |  | 
Oc1ccc(-c2c3ccccc3c(-c3ccc(OCCBr)cc3)c3ccccc23)cc1 | 42 | > 100 | > 100 | > 100 | 77.4 | > 100 | 36.3 |  |  |  |  |  |  |  | 
C/C(=N\Nc1nc2ccccc2[nH]1)c1ccncn1 | > 100 |  | > 79.5 | > 100 | > 100 | 64.3 | 13.4 |  |  |  |  |  |  |  | 
O=C(O)CN1CCNCCN(CC(=O)O)CCNCC1 | > 100 | > 100 | > 100 | > 100 | > 74.7 | > 100 | 21.9 |  |  |  |  |  |  |  | 
COc1cc(C2SCC(=O)N2c2ccc(-c3ccc(-n4c(-c5ccccc5)nc5ccccc5c4=O)cc3)cc2)ccc1O (stereo not drawn) | > 100 | > 100 | > 100 | 71.5 | > 100 | > 100 | > 100 |  |  |  |  |  |  |  | 
COc1ccc(-c2nc(N)c(C#N)c3c2CCSc2ccc(C)cc2-3)cc1OC | > 100 | 93.9 | > 57.8 | > 31.5 | > 73.1 | > 95.1 | 25.2 |  |  |  |  |  |  |  | 
CC(=O)Nc1ccc2c3c(cc(O)c2c1)N(C(=O)CCCC(=O)Nc1ccc2c4c(cc(O)c2c1)N(C(=O)OC(C)(C)C)CC4CCl)CC3CCl (stereo not drawn) | 2 |  | 1.91 | 12.7 | > 50 | > 15.6 | > 11.6 |  |  |  |  |  |  |  | 
Cc1ccc(S(=O)(=O)c2c(N)c3nccn3c3nc4ccccc4nc23)cc1 |  | > 100 | > 100 |  | > 100 | > 100 | > 100 | > 100 | > 100 | > 100 | > 100 | > 100 | > 100 | > 100 | > 100
O=C(CC(=O)N(C(=O)c1ccccc1)c1ccc(Cl)cc1)N/N=C\c1ccccc1O | > 100 | > 100 | > 100 | > 100 | > 100 | 54.3 | > 100 |  |  |  |  |  |  |  | 
CC1CC(=O)N2CCCNC2=C1C#N (stereo not drawn) | > 100 | > 100 | > 100 | > 100 | > 100 | > 100 | > 100 |  |  |  |  |  |  |  | 
CCCCOP(=O)(OCCCC)/C(C#N)=C/c1ccc(C)o1 | 95.9 | > 100 | > 100 | > 100 | > 100 | > 100 | 76.1 |  |  |  |  |  |  |  | 
CC(Oc1ccccc1)C(=O)NN (stereo not drawn) | > 100 | > 100 | > 100 | > 100 | > 100 | > 100 | > 100 |  |  |  |  |  |  |  | 
COc1ccc(-c2nc(N(C)C)c3ccccc3n2)cc1 | 33.8 | 99.3 | 23.5 | 49.1 | 37.8 | 48.2 | 26.2 |  |  |  |  |  |  |  | 
Brc1ccccc1/C=C\C1(c2ccccc2)OCCO1 | 24.6 | 16 | 32.2 | 31.4 | 19.5 | 26.5 | 29.1 |  |  |  |  |  |  |  | 
